Where a name gives a salt, the structure may show the parent alone.
Experiments:
Mus musculus [1] = assay: Hypoglycemic activity in Swiss-Webster mouse assessed as change plasma glucose level at 250 mg/kg, ip after 4 hrs; assay type: functional; settings: route intraperitoneal
Artemia = assay: Toxicity in brine shrimp; assay type: organism-based; settings: in vivo
Mus musculus [2] = assay: Hypoglycemic activity in Swiss-Webster mouse assessed as change plasma glucose level at 125 mg/kg, ip after 4 hrs; assay type: functional; settings: route intraperitoneal
Homo sapiens [3] = species on record: Homo sapiens; assay: Toxicity in patient with familial hypercholesterolemia at 750 to 2250 mg/day in 3 divided doses for 8 weeks; assay type: organism-based; settings: in vivo, 1344 h
[4] = Acute toxicity in po dosed mouse; assay type: organism-based; settings: in vivo
Mus musculus [5] = assay: Hypoglycemic activity in Swiss-Webster mouse assessed as change plasma glucose level at 62.5 mg/kg, ip after 4 hrs; assay type: functional; settings: route intraperitoneal
Homo sapiens [6] = species on record: Homo sapiens; assay: Antihypercholesterolemic activity in patient with familial hypercholesterolemia assessed as decrease in plasma cholesterol at 2250 mg/day in 3 divided doses for 8 weeks; assay type: functional; design: scale not given: the % may be the effect or the level left
Homo sapiens [7] = species on record: Homo sapiens; assay: Antihypercholesterolemic activity in patient with familial hypercholesterolemia assessed as decrease in plasma cholesterol at 3000 mg/day in 3 divided doses for 8 weeks; assay type: functional; design: scale not given: the % may be the effect or the level left
[8] = Acute toxicity in ip dosed mouse; assay type: organism-based; settings: in vivo

Compound | Activity (Mus musculus [1]) [%] | LC50 (Artemia) [ppm] | also measured
COC(=O)C(O)(CC(=O)O)CC(=O)O | -7.4 |  | 
CCOC(=O)C(O)(CC(=O)O)CC(=O)O | -6.6 |  | 
COC(=O)CC(O)(CC(=O)OC)C(=O)OC | 29 |  | 
COc1cc(-c2oc3cc(O[C@@H]4O[C@H](CO)[C@@H](O)[C@H](O)[C@H]4O)c(OC)c(O)c3c(=O)c2OC)cc(OC)c1O | -1 | 420 | 
CCOC(=O)CC(O)(CC(=O)O)C(=O)OCC (stereo not drawn) | -17.3 |  | 
COC(=O)CC(O)(CC(=O)O)C(=O)OC (stereo not drawn) | 35.8 |  | 
O=C(O)CC(O)(CC(=O)O)C(=O)O [CITRIC ACID] | 47.3 | 50 | 
Cc1cn([C@H]2C[C@H](O)[C@@H](CO)O2)c(=O)[nH]c1=O [DOXRIBTIMINE] | 25.5 | > 1000 | 
CC(O)(CC(=O)O)CC(=O)O [MEGLUTOL] | -41.7 | 228 | Activity (Mus musculus [2]): -21%; Activity (Homo sapiens [3]): Non-toxic; LD50 [4]: 7330 mg/kg; Activity (Mus musculus [5]): 7.9%; Activity (Homo sapiens [6]): 11%; Activity (Homo sapiens [7]): 13%; LD50 [8]: 3230 mg/kg
O=C(O)CCC(=O)O [SUCCINIC ACID] | 9.9 | 40 | 
CCOC(=O)CC(O)(CC(=O)OCC)C(=O)OCC [TRIETHYL CITRATE] | -13.6 |  | 
